Test results as given in article PMC9598407, “Identification of Staphylococcus aureus Penicillin Binding Protein 4 (PBP4) Inhibitors” (Antibiotics, 2022).
Converted amounts (≈) assume the structure as drawn.

Columns and labels:
[1] = tested on: S. aureus USA300∆pbp4 pPBP4; assay: microbe, parasite or virus in culture; type: cell-based; details: Staphylococcus aureus, USA300, read-out: Minimum inhibitory concentration
S. aureus CRB = assay: MIC testing, strain CRB (PBP4 overproducer); type: cell-based, Staphylococcus aureus; details: for MIC: Staphylococcus aureus, read-out: Minimum inhibitory concentration, strain CRB
Description: (§1) To further evaluate their potential PBP4 inhibitor activity, prioritized compounds were tested for their ability to reverse PBP4 mediated antibiotic resistance in another S. aureus background using three isogenic strains that became available during our study (generous gift from Dr. S. Chatterjee; University of Maryland). These strains included: (1) COLnex, which is a methicillin susceptible strain, (2) CRB, a methicillin/ceftobiprole-resistant strain of COLnex that overproduces PBP4, and (3) CRB∆pbp4, a methicillin susceptible strain of CRB lacking the pbp4 gene.
(§2) S. aureus strain USA300 is a predominant cause of U.S. community-associated MRSA infections, whereas strain COL is a commonly studied hospital-associated MRSA strain. The S. aureus USA300 pbp4-null strain (USA300Δpbp4) and PBP4 complementation strain (USA300∆pbp4 pPBP4) have been previously described. Strain COLn is a laboratory derived tetracycline susceptible derivative of COL, whereas COLnex is a methicillin susceptible COLn derivative that has been cured of SCCmec thereby removing the mecA, which encodes PBP2a, and has been previously described. Strain CRB is a well-studied MRSA COLnex derivative that contains two amino acid substitutions (E183A and F241R) near the PBP4 active site and a 36-bp duplication 290-bp upstream of the pbp4 open reading frame leading to 20–40-fold overexpression of the gene. All strains were grown in Mueller Hinton (MH) broth at 37 °C, as indicated. Penicillin, streptomycin, ciprofloxacin, mupirocin, meropenem, and mitomycin C were purchased from Fisher Scientific (Waltham, MA, USA), whereas ceftobiprole was obtained from MedChemExpress LLC (Monmouth Junction, NJ, USA). The 30,000-member […]-EXP small molecule chemical library (Blocks 3–5) used in these studies was purchased from ChemBridge Corporation (San Diego, CA, USA).

S. aureus USA300∆pbp4 = assay: MIC testing, strain USA300∆pbp4; type: cell-based, Staphylococcus aureus; details: for MIC: Staphylococcus aureus, USA300, read-out: Minimum inhibitory concentration
Description: (§3) The approach used was to initially search for compounds that reverse the antibiotic resistance profile of wild type cells to that of a pbp4 mutant. To define screening conditions three strains were employed, a wild type USA300 MRSA strain, an isogenic pbp4 deletion strain, and a complemented strain harboring a plasmid wildtype pbp4 copy. The antibiotic susceptibility profile of each strain was measured to determine the magnitude with which PBP4 affects resistance to various antibiotics (Table 1). […]. We anticipated that the greater dynamic range of the latter could provide a means to reliably screen for agents that inhibit PBP4 function. […].
as §2

S. aureus USA300 = assay: Minimum inhibitory concentration (MIC) testing, strain USA300; type: cell-based, Staphylococcus aureus; details: for MIC: Staphylococcus aureus, USA300, read-out: Minimum inhibitory concentration; for Fold increase in resistance provided by PBP4: USA300 versus USA300∆pbp4 MIC; for Minimum inhibitory concentration: strain USA300
Description: as §3, §2

S. aureus COLnex = assay: MIC testing, strain COLnex; type: cell-based; details: Staphylococcus aureus, read-out: Minimum inhibitory concentration
Description: as §1, §2

S. aureus CRB∆pbp4 = assay: MIC testing, strain CRB∆pbp4; type: cell-based; details: Staphylococcus aureus, read-out: Minimum inhibitory concentration
Description: as §1, §2

recombinant PBP4 = recombinant PBP4 (Bacillus subtilis, UniProt P40750); assay: Gel electrophoresis BOCILLIN FL labeling of PBP4; type: binding; details: for Effect of preincubation on PBP4 BOCILLIN FL labeling (gel-based): 50-5000 µM, kanamycin 2000 µM or 5000 µM; for PBP4 BOCILLIN FL binding inhibition (gel-based) at low concentration: concentrations below 50 µM
Sequence of recombinant PBP4 (P40750 22-624): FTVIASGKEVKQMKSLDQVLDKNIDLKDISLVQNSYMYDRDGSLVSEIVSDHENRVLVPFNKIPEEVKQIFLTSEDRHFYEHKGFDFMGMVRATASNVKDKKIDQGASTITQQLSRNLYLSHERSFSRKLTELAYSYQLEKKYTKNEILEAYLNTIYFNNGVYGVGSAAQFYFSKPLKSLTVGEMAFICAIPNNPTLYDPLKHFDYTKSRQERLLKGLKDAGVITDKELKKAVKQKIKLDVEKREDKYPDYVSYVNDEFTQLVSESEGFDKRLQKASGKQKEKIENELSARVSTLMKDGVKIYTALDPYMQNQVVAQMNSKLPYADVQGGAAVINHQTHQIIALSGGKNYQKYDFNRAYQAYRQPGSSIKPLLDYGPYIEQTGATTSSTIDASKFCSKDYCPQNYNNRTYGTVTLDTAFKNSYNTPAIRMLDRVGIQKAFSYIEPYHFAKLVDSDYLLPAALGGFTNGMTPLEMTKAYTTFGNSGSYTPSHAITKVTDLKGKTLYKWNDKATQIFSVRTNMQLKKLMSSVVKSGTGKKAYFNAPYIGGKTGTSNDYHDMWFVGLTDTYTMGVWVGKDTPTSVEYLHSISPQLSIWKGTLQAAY
Description: A second, yet lower resolution, approach was used to verify the impact of 9314848 on PBP4 substrate binding in which the protein was preincubated with compound or control antibiotics then labeled with the BOCILLIN FL and resulting fluorescent labeled protein was visualized following gel electrophoresis.
(§4) The ability of putative PBP4 inhibitors to impact the active site of recombinant PBP4 was assessed using two previously established BOCILLIN-FL Penicillin (Penicillin V conjugated to BODIPY fluorescent dye) binding assays. First, fluorescence polarization assays were performed as previously described, but with minor modifications. Briefly, the indicated amount of the putative PBP4 inhibitor or control antibiotic was incubated with 1 µM recombinant B. subtilis PBP4 or S. aureus PBP2a in potassium phosphate buffer (40 mM K2HPO4 and 10 mM KH2PO4) for 1 h in black 96-well microtiter plates (Corning Life Sciences, Corning, NY, USA). Following incubation, 1 µM (final concentration) BOCILLIN FL penicillin was added, and the mixture was incubated for 30 min. BOCILLIN FL fluorescence polarization was measured at (495 nm excitation and 545 nm emission) in a SpectraMax M5 multimode plate reader (Molecular Devices, San Jose, CA, USA). All assays were repeated at least 8 times, averaged, and values falling outside of 2 standard deviations were considered outliers. The resulting data were plotted as percentage BOCILLIN FL binding inhibition = (T/U) × 100; T = FL polarization of ((PBP4+ BOCILLIN FL) − (PBP4+ BOCILLIN FL + inhibitor compound)), U = FL polarization of ((PBP4 + BOCILLIN FL) − (BOCILLIN FL)). Second, gel electrophoresis and fluorescence detection was used to measure BOCILLIN FL labeling of PBP4 treated with the known PBP4 inhibitor cefoxitin (positive control), kanamycin (negative control) or 9314848 (test compound), as previously described but with minor modifications. Briefly, 1 µM of recombinant PBP4 was mixed with 0, 50, 500, 2000, or 5000 µM 9314848 or control antibiotic in 50 mM phosphate buffer (pH 7.4) and incubated at 37 °C for 30 min. Next 40 μM of BOCILLIN FL was added to the reaction mixture and incubated for an additional 30 min at 37 °C. Reactions were stopped by adding 5× SDS-PAGE gel loading dye, heated at 100 °C for 3 min and separated by electrophoresis in 12% SDS-PAGE (2 h, 120 Volts). BOCILLIN FL labeled PBP4 was imaged at λ = 365 nm using a BioRad Gel Doc EZ Imaging system and the gel was then subsequently stained with Bio-safe Coomassie Brilliant Blue stain (BioRad, Hercules, CA, USA) to measure the amount of protein present in each reaction condition and analyzed using NIH-ImageJ software. The percent BOCILLIN FL binding was calculated by first normalizing the protein present in each reaction condition to that of untreated control and subsequently applying each reaction’s protein normalization factor to each reaction’s fluorescent signal. The percentage BOCILLIN FL binding inhibition was then calculated as the normalized band intensity of antibiotic/compound treated sample as compared to the control sample (PBP4 + BOCILLIN FL in the absence of compound).

[2] = target: recombinant Bacillus subtilis PBP4 (Bacillus subtilis, UniProt P40750); assay: BOCILLIN FL fluorescence polarization displacement assay, PBP4; type: binding; details: for Effect of preincubation on BOCILLIN FL binding to PBP4 (fluorescence polarization): 50 µM, 1 µM PBP4
Sequence of recombinant Bacillus subtilis PBP4 (P40750 22-624): as above
Description: To more directly evaluate whether 9314848 is likely to affect PBP4 function, the compound’s ability to bind recombinant PBP4 was measured using BOCILLIN FL fluorescence polarization displacement assays. The premise for the assay is that the fluorescence polarization of the fluorescently labeled β-lactam, penicillin V (BOCILLIN FL), will increase upon binding to its cognate target (i.e., PBP4). Further, compounds that bind PBP4 and inhibit its function would impede BOCILLIN FL binding thereby allowing us to assess the protein binding affinity of 9314848 using a simple fluorescence reduction assay.
To determine whether the assay is amenable to measuring the binding properties of a compound that is known to bind PBP4 vs. a compound that is not expected to bind the protein we performed fluorescence polarization assays in which PBP4 was preincubated with either the β-lactam ampicillin, or the aminoglycoside kanamycin.
A dose response study was conducted (Figure 4B) in which PBP4 was preincubated with 0, 3.125, 6.25, 12.5, 25, or 50 µM of ampicillin, kanamycin, or 9314848.
as §4, with “First,” for “The ability of putative PBP4 inhibitors to impact the active site of recombinant PBP4 was assessed using two previously established BOCILLIN-FL Penicillin (Penicillin V conjugated to BODIPY fluorescent dye) binding assays. First,”, “All assays were repeated at least 8 times, averaged, and values falling outside of 2 standard deviations were considered outliers.” left out

Row | Molecule | MIC [1] [µg/mL] | MIC (S. aureus CRB) [µg/mL] | MIC (S. aureus USA300∆pbp4) [µg/mL] | MIC (S. aureus USA300) [µg/mL] | MIC (S. aureus COLnex) [µg/mL] | MIC (S. aureus CRB∆pbp4) [µg/mL] | Minimum inhibitory concentration (S. aureus USA300∆pbp4; strain USA300∆pbp4) [µg/mL] | Fold increase in resistance provided by PBP4 (S. aureus USA300) | Minimum inhibitory concentration (S. aureus USA300) [µg/mL] | Effect of preincubation on PBP4 BOCILLIN FL labeling (gel-based) (recombinant PBP4) | PBP4 BOCILLIN FL binding inhibition (gel-based) at low concentration (recombinant PBP4) | PBP4 BOCILLIN FL binding inhibition, dose response ([2]; 0, 3.125, 6.25, 12.5, 25, or 50 µM) | Effect of preincubation on BOCILLIN FL binding to PBP4 (fluorescence polarization) [2] | Minimum inhibitory concentration (S. aureus CRB; strain CRB) [µg/mL]
1 | C/C(=C\C(=O)OCCCCCCCCC(=O)O)C[C@@H]1OC[C@H](C[C@@H]2O[C@H]2[C@@H](C)[C@H](C)O)[C@@H](O)[C@H]1O [MUP, mupirocin] | 0.125 (≈ 0.25 µM) | 0.03 (≈ 0.0599 µM) | 0.125 (≈ 0.25 µM) | 0.125 (≈ 0.25 µM) | 0.03 (≈ 0.0599 µM) | 0.03 (≈ 0.0599 µM) |  |  |  |  |  |  |  | 
2 | O=C(O)c1cn(C2CC2)c2cc(N3CCNCC3)c(F)cc2c1=O [CIP, ciprofloxacin] |  | 0.5 (≈ 1.51 µM) | 1 (≈ 3.02 µM) | 4 (≈ 12.1 µM) | 0.25 (≈ 0.754 µM) | 0.25 (≈ 0.754 µM) | 1 (≈ 3.02 µM) | ~ 4 fold | 4 (≈ 12.1 µM) |  |  |  |  | 
3 | CO[C@@]1(NC(=O)Cc2cccs2)C(=O)N2C(C(=O)O)=C(COC(N)=O)CS[C@@H]21 [cefoxitin] |  |  |  |  |  |  |  |  |  | reduced the protein’s ability to bind the fluorescent substrate | did not reproducibly demonstrate BOCILLIN FL binding inhibition |  |  | 
4 | CN(C)c1ccc(O)c2c1C[C@H]1C[C@H]3[C@H](N(C)C)C(O)=C(C(N)=O)C(=O)[C@@]3(O)C(O)=C1C2=O [MIN, minocycline] | 0.5 (≈ 1.09 µM) | 0.5 (≈ 1.09 µM) | 0.5 (≈ 1.09 µM) | 0.5 (≈ 1.09 µM) | 0.5 (≈ 1.09 µM) | 0.5 (≈ 1.09 µM) |  |  |  |  |  |  |  | 
5 | C[C@H]1COc2c(N3CCN(C)CC3)c(F)cc3c(=O)c(C(=O)O)cn1c23 [LEV, levofloxacin] | 1 (≈ 2.77 µM) | 0.5 (≈ 1.38 µM) | 0.5 (≈ 1.38 µM) | 1 (≈ 2.77 µM) | 0.25 (≈ 0.692 µM) | 0.25 (≈ 0.692 µM) |  |  |  |  |  |  |  | 
6 | NC[C@H]1O[C@H](O[C@H]2[C@H](O)[C@@H](O[C@H]3O[C@H](CO)[C@@H](O)[C@H](N)[C@H]3O)[C@H](N)C[C@@H]2N)[C@H](O)[C@@H](O)[C@@H]1O [kanamycin] |  |  |  |  |  |  |  |  |  | did not significantly impact |  | no inhibitory effect | had no impact on BOCILLIN FL binding | 
7 | NC[C@H]1O[C@H](O[C@H]2[C@H](O)[C@@H](O[C@H]3O[C@H](CO)[C@@H](O)[C@H](N)[C@H]3O)[C@H](N)C[C@@H]2N)[C@H](N)C[C@@H]1O [TOB, tobramycin] | 1 (≈ 2.14 µM) | 0.06 (≈ 0.128 µM) | 1 (≈ 2.14 µM) | 1 (≈ 2.14 µM) | 0.06 (≈ 0.128 µM) | 0.06 (≈ 0.128 µM) |  |  |  |  |  |  |  | 
8 | CC1(C)S[C@@H]2[C@H](NC(=O)[C@H](N)c3ccccc3)C(=O)N2[C@H]1C(=O)O [ampicillin] |  |  |  |  |  |  |  |  |  | reduced the protein’s ability to bind the fluorescent substrate | did not reproducibly demonstrate BOCILLIN FL binding inhibition |  | limited BOCILLIN FL binding | 
9 | colistin |  |  |  |  |  |  |  |  | 128 |  |  |  |  | 128
10 | CCOc1ccc2ccccc2c1C(=O)N[C@@H]1C(=O)N2[C@@H]1SC(C)(C)[C@@H]2C(=O)O [NAF, nafcillin] | 8 (≈ 19.3 µM) | > 128 | 4 (≈ 9.65 µM) | 8 (≈ 19.3 µM) | 0.25 (≈ 0.603 µM) | 0.25 (≈ 0.603 µM) |  | 2 fold | 8 (≈ 19.3 µM) |  |  |  |  | 
